SMILES strings stand for the structures. ≈ marks a conversion by molar mass, not a printed value.

For orientation: Solubility means how much of the substance goes into solution per volume. Low values mean a poorly soluble substance, high ones a readily soluble substance. In general, solubility refers to how much of the substance goes into solution per volume.

The nature of series [1]: Kinetic solubility in FeSSIF and FaSSIF. It is filed as physicochemical. As to conditions: for Solubility in comparison to the hemihydrate form (WO2008069327A1): FeSSIF and FaSSIF, 1 h, 4 h, 24 h; for Solubility in comparison to the hemihydrate form (WO2008069327A1) / solubility at 1 h / solubility at 4 h / solubility at 24 h: RT; for solubility at 1 h / solubility at 4 h / solubility at 24 h: thermodynamic from solid. As for the experimental part:
Kinetic solubility of canagliflozin in crystalline Form B and its hemihydrate form in fed state simulated intestinal fluid (FeSSIF) and fasted state simulated intestinal fluid (FaSSIF) were measured using the following procedures:
1. Weighed approximately 30 mg of compound into a tared 4 mL plastic vial and recorded the actual weight of the compound.
2. Added 3 mL of water or bio-relevant medium into each vial.
3. Covered the vials with caps and kept all the suspension samples stirring at RT using a rolling incubator with a speed of 25 r/min.
4. Sampled at 1 h, 4 h and 24 h respectively.
5. Centrifuged the filtration tubes in a speed of 8500 rpm for 3 minutes at RT, collected 0.2 mL supernatant for HPLC quantification determination and the rest of solution for pH measurement, and separated the solid for XRPD characterization.
Kinetic solubility of canagliflozin Form C and hemihydrate in fed state simulated intestinal fluid (FeSSIF) and fasted state simulated intestinal fluid (FaSSIF) were measured using the following procedures:
5. Centrifuged filtration tubes in a speed of 8500 rpm for 3 minutes at RT, collected 0.2 mL supernatant for HPLC quantification determination and the rest of solution for pH measurement, and separated the solid for XRPD characterization.

The nature of series [2]: Stability assessment of Form B under stress conditions (XRPD after storage). The format is physicochemical. As to conditions: 30 days; for Final form: dish open, XRPD. As for the experimental part: Two samples of canagliflozin Form B were stored under 25° C./60% RH and 40° C./75% RH, respectively, with dish open for 30 days. The solid samples were analyzed by XRPD.

In the case of `Cc1ccc([C@@H]2O[C@H](CO)[C@@H](O)[C@H](O)[C@H]2O)cc1Cc1ccc(-c2ccc(F)cc2)s1` [WO2008069327A1 hemihydrate, (2S,3R,4R,5S,6R)-2-{3-[5-[4-fluoro-phenyl)-thiophen-2-ylmethyl]-4-methyl-phenyl -}-6-hydroxymethyl-tetrahydro-pyran-3,4,5-triol, reference compound], the “Solubility at RT” value was determined as 360 µg/mL in series [1] (FaSSIF, time point 1 h); 370 µg/mL in series [1] (FaSSIF, time point 4 h); 370 µg/mL in series [1] (FaSSIF, time point 24 h); 3340 µg/mL in series [1] (FeSSIF, time point 1 h); 3500 µg/mL in series [1] (FeSSIF, time point 4 h); 3700 µg/mL in series [1] (FeSSIF, time point 24 h).
On to `Cc1ccc([C@@H]2O[C@H](CO)[C@@H](O)[C@H](O)[C@H]2O)cc1Cc1ccc(-c2ccc(F)cc2)s1` [Form C, (2S,3R,4R,5S,6R)-2-{3-[5-[4-fluoro-phenyl)-thiophen-2-ylmethyl]-4-methyl-phenyl -}-6-hydroxymethyl-tetrahydro-pyran-3,4,5-triol], for which the “Solubility at RT” value in series [1] (FaSSIF, time point 1 h) was 410 µg/mL (≈ 0.922 mM); in series [1] (FaSSIF, time point 4 h), 440 µg/mL (≈ 0.99 mM); in series [1] (FaSSIF, time point 24 h), 420 µg/mL (≈ 0.945 mM); in series [1] (FeSSIF, time point 1 h) it was 4600 µg/mL (≈ 10.3 mM); in series [1] (FeSSIF, time point 4 h) it was 4700 µg/mL (≈ 10.6 mM); in series [1] (FeSSIF, time point 24 h), 4500 µg/mL (≈ 10.1 mM). The “Solubility in comparison to the hemihydrate form (WO2008069327A1)” value in series [1] was “higher solubility”.
For `Cc1ccc([C@@H]2O[C@H](CO)[C@@H](O)[C@H](O)[C@H]2O)cc1Cc1ccc(-c2ccc(F)cc2)s1` [Form B, (2S,3R,4R,5S,6R)-2-{3-[5-[4-fluoro-phenyl)-thiophen-2-ylmethyl]-4-methyl-phenyl -}-6-hydroxymethyl-tetrahydro-pyran-3,4,5-triol], in series [2] (25° C./60% RH and 40° C./75% RH), the “Stability under the stress conditions” value is “stable”. Moreover, the Final form result in series [2] (stored under 25° C./60% RH) and in series [2] (stored under 40° C./75% RH) was “Form B” in each case. Moreover, the “Solubility in comparison to the hemihydrate form (WO2008069327A1)” value in series [1] is listed as “higher solubility”. Further, the solubility at 1 h in series [1] (fasted state simulated intestinal fluid (FaSSIF), fassif, time point 1 h) was 500 µg/mL (≈ 1.12 mM); in series [1] (fed state simulated intestinal fluid (FeSSIF), fessif, time point 1 h) it was 4720 µg/mL (≈ 10.6 mM). Further, the solubility at 4 h is 510 µg/mL (≈ 1.15 mM) in series [1] (fasted state simulated intestinal fluid (FaSSIF), fassif, time point 4 h) and 4760 µg/mL (≈ 10.7 mM) in series [1] (fed state simulated intestinal fluid (FeSSIF), fessif, time point 4 h). The solubility at 24 h was 480 µg/mL (≈ 1.08 mM) in series [1] (fasted state simulated intestinal fluid (FaSSIF), fassif, time point 24 h) and 4350 µg/mL (≈ 9.79 mM) in series [1] (fed state simulated intestinal fluid (FeSSIF), fessif, time point 24 h).

(Values after patent US20160280731A1, “CRYSTALLINE FORMS B, C, and D OF CANAGLIFLOZIN” (CRYSTAL PHARMATECH CO., LTD, priority 2013, published 2016).)
